Results: the supplement of paper PMC13386468

How the values were obtained:
Assay in all cases: IC50 for competition of protein binding to Kinobeads
Conditions in all cases: assay detail: Kinobeads competition in P. falciparum blood-stage lysate
[1] = molecular target: UniProt Q8IEF5
[2] = molecular target: UniProt Q8I5Y3
[3] = molecular target: UniProt Q8I1R6
[4] = molecular target: UniProt Q8I3X4
[5] = molecular target: UniProt Q8IEM3
[6] = molecular target: UniProt Q8IE22
[7] = molecular target: UniProt Q8ILQ7
UniProt Q8ILQ7, sequence (Q8ILQ7 whole entry): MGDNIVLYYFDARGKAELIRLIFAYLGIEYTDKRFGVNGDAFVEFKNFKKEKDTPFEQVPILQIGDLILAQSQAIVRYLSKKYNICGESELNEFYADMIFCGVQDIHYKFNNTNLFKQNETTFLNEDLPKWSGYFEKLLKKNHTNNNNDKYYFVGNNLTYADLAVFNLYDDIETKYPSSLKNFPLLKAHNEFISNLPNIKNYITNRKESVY

[8] = molecular target: UniProt C6KTA4
[9] = molecular target: UniProt Q8II24
[10] = molecular target: UniProt Q8IDY6
[11] = molecular target: UniProt O97285
[12] = molecular target: UniProt C0H4L1
[13] = molecular target: UniProt Q8IE20
[14] = molecular target: UniProt Q8I0V3
[15] = molecular target: UniProt C6KSV0
[16] = molecular target: UniProt Q8IDG3
[17] = molecular target: UniProt Q8IAM0
[18] = molecular target: UniProt Q8IDR9
[19] = molecular target: UniProt Q8ILF0
[20] = molecular target: UniProt Q8IBY4
[21] = molecular target: UniProt Q8I259
[22] = molecular target: UniProt C6KT56
[23] = molecular target: UniProt Q7K6A5
UniProt Q7K6A5, sequence (Q7K6A5 whole entry): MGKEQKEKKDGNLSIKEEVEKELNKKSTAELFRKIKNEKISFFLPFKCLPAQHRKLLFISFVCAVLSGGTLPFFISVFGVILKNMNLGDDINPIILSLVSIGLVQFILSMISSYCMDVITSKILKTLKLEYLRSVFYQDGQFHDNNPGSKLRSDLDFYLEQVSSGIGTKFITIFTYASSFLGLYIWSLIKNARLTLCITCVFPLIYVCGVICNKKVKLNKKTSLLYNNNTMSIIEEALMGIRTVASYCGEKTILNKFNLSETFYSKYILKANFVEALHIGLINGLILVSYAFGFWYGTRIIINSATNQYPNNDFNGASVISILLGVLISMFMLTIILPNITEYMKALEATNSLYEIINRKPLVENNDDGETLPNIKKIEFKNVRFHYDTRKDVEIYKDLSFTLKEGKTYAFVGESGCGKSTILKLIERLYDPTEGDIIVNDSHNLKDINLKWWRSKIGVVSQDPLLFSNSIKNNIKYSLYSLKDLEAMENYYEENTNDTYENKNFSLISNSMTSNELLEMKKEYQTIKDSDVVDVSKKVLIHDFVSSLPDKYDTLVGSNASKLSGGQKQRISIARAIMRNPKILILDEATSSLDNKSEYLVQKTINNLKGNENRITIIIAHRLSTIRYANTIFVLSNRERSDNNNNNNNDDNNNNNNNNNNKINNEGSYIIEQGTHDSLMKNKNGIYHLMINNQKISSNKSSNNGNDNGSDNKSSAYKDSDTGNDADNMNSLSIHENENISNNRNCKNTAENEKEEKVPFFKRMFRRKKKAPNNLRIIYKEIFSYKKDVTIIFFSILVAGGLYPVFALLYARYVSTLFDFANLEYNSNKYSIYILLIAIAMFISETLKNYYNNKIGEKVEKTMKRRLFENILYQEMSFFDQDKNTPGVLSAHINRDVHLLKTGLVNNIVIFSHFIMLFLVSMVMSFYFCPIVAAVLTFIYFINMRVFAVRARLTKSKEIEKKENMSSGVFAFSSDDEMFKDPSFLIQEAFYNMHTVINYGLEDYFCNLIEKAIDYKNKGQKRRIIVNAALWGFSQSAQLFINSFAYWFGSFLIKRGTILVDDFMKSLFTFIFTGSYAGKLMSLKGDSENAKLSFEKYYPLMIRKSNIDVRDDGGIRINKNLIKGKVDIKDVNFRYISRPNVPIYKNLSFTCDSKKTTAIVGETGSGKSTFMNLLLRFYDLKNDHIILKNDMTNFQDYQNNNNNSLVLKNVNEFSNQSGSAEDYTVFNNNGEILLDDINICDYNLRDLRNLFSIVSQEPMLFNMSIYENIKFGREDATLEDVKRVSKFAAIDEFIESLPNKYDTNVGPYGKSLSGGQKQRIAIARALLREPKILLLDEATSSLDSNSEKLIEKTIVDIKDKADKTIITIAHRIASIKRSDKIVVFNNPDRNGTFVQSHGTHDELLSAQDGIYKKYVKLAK

[24] = molecular target: UniProt Q8I2S6
[25] = molecular target: UniProt Q8IB78
[26] = molecular target: UniProt Q8IB44
[27] = molecular target: UniProt Q8I3T4
[28] = molecular target: UniProt C0H4Y6
[29] = molecular target: UniProt Q8IAR3
[30] = molecular target: UniProt Q8ILS7
[31] = molecular target: UniProt Q8IIV1
[32] = molecular target: UniProt Q8IDB7
[33] = molecular target: UniProt Q8II43
[34] = molecular target: UniProt Q8IBN7
[35] = molecular target: UniProt Q7KQM0
UniProt Q7KQM0, sequence (Q7KQM0 whole entry): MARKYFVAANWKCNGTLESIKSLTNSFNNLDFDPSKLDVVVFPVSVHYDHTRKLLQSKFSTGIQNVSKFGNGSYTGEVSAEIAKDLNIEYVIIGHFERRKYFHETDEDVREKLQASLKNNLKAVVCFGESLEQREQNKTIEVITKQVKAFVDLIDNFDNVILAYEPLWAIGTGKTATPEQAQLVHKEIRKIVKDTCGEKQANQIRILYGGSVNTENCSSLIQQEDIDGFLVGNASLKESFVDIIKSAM

[36] = molecular target: UniProt Q8IJR9
UniProt Q8IJR9, sequence (Q8IJR9 whole entry): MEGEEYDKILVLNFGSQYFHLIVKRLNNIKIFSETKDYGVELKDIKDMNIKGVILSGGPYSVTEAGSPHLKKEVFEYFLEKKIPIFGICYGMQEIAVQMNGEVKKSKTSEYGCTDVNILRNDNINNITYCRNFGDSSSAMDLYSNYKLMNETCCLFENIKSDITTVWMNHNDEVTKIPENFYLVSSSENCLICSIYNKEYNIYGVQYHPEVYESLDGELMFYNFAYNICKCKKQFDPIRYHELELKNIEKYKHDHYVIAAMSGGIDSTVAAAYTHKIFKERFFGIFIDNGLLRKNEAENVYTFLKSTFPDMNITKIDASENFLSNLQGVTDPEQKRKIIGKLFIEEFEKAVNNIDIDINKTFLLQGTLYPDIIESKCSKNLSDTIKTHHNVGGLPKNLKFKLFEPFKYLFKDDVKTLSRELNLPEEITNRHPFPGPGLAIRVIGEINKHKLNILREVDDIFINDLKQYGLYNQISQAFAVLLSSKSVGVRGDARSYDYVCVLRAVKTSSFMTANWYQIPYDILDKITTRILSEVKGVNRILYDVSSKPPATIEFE

[37] = molecular target: Q8ICR0 (UniProt O15865)
Q8ICR0, sequence (O15865 whole entry, one chain of several): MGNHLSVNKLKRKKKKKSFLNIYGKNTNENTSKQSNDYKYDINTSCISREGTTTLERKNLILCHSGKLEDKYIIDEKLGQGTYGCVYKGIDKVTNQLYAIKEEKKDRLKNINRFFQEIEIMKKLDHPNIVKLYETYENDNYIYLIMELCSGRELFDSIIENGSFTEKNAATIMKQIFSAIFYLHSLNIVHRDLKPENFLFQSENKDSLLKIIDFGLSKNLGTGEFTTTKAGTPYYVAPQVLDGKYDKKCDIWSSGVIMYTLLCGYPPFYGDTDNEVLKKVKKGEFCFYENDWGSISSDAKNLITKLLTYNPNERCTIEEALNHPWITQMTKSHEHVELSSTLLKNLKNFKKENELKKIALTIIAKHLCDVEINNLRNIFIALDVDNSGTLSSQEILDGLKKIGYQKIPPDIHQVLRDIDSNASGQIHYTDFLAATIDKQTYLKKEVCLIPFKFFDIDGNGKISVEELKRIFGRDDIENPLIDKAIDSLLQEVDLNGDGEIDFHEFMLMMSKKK

[38] = molecular target: UniProt C6KT13
[39] = molecular target: UniProt Q8IKA6
[40] = molecular target: UniProt C6KSZ6
[41] = molecular target: UniProt Q8IL80
[42] = molecular target: UniProt C6KSV4
[43] = molecular target: UniProt Q8I3J5
[44] = molecular target: UniProt Q8ILP3
UniProt Q8ILP3, sequence (Q8ILP3 whole entry): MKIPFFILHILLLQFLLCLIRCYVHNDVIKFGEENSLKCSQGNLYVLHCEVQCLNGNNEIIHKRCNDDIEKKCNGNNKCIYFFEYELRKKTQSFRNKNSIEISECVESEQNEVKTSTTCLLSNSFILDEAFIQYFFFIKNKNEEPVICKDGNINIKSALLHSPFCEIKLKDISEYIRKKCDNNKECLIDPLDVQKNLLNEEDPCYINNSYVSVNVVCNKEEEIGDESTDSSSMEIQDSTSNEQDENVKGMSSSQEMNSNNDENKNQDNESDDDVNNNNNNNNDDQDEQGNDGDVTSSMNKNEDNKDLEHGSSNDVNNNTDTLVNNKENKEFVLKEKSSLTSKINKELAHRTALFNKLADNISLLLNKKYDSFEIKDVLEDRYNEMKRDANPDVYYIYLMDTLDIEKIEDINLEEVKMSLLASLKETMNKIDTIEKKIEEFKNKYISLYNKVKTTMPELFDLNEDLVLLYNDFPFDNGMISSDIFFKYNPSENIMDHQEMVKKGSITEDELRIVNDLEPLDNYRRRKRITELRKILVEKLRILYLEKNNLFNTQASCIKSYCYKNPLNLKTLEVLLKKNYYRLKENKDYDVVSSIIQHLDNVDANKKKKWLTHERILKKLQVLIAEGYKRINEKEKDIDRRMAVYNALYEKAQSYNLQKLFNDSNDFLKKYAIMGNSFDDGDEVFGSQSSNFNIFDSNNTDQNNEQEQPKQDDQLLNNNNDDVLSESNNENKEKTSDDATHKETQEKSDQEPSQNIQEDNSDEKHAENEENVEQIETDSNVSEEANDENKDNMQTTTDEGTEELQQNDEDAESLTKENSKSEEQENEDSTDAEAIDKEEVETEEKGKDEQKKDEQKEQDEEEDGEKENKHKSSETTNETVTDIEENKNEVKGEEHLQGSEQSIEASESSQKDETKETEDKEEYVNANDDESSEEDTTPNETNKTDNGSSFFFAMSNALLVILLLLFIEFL

[45] = molecular target: UniProt C6KT50
UniProt C6KT50, sequence (C6KT50 whole entry): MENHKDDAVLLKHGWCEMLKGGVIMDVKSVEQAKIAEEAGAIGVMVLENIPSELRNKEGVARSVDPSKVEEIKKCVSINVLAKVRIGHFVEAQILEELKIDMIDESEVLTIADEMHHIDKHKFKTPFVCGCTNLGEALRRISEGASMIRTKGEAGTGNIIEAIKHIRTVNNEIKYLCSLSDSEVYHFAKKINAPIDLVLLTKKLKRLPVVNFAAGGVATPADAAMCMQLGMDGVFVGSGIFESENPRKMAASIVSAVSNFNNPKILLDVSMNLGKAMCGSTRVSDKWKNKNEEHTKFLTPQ

[46] = molecular target: UniProt O96153
[47] = molecular target: UniProt Q8IE76
[48] = molecular target: UniProt O15770
UniProt O15770, sequence (O15770 whole entry): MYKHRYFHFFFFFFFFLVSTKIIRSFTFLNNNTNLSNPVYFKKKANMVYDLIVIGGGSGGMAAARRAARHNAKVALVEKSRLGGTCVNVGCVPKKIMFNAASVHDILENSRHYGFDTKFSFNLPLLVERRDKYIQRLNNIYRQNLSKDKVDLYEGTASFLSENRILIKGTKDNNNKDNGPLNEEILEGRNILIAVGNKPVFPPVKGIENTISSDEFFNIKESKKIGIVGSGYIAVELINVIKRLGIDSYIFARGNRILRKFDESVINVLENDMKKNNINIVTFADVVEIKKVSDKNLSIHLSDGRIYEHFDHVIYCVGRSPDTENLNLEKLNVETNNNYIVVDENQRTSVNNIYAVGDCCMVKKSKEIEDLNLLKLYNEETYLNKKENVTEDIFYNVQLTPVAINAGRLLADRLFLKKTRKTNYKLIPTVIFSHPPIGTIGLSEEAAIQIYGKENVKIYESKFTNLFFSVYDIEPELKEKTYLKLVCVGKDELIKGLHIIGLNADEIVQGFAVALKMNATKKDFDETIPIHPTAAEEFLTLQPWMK

[49] = molecular target: UniProt Q8IBT2
[50] = molecular target: UniProt Q5MYR6
[51] = molecular target: UniProt Q8IJP8
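Further: native unpurified kinases from lysate captured on beads bearing immobilized kinase inhibitors, with bead-bound kinases quantified by mass spectrometry across compound doses.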

UniProt Q8I3X4, sequence (Q8I3X4 whole entry): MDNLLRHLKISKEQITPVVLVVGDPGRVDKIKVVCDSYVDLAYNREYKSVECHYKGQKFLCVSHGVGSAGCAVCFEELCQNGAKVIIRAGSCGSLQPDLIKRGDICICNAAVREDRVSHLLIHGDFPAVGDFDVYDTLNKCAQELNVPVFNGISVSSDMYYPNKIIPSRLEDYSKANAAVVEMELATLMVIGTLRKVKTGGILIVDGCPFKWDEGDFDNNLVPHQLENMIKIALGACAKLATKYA

Structure (SMILES): O=c1[nH]c2ccc(Cl)cc2c(NC2CN3CCC2CC3)c1-c1nc2ccccc2[nH]1 (stereo unspecified) [CHIR-124]
- IC50 [1]: > 20 µM
- IC50 [2]: > 20 µM
- IC50 [3]: > 20 µM
- IC50 [4]: > 20 µM
- IC50 [5]: > 20 µM
- IC50 [6]: > 20 µM
- IC50 [7]: > 20 µM
- IC50 [8]: > 20 µM
- IC50 [9]: > 20 µM
- IC50 [10]: > 20 µM
- IC50 [11]: > 20 µM
- IC50 [12]: > 20 µM
- IC50 [13]: > 20 µM
- IC50 [14]: > 20 µM
- IC50 [15]: > 20 µM
- IC50 [16]: > 20 µM
- IC50 [17]: > 20 µM
- IC50 [18]: > 20 µM
- IC50 [19]: > 20 µM
- IC50 [20]: > 20 µM
- IC50 [21]: > 20 µM
- IC50 [22]: > 20 µM
- IC50 [23]: > 20 µM
- IC50 [24]: > 20 µM
- IC50 [25]: > 20 µM
- IC50 [26]: > 20 µM
- IC50 [27]: > 20 µM
- IC50 [28]: > 20 µM
- IC50 [29]: > 20 µM
- IC50 [30]: > 20 µM
- IC50 [31]: > 20 µM
- IC50 [32]: > 20 µM
- IC50 [33]: > 20 µM
- IC50 [34]: > 20 µM
- IC50 [35]: > 20 µM
- IC50 [36]: > 20 µM
- IC50 [37]: > 20 µM
- IC50 [38]: > 20 µM
- IC50 [39]: > 20 µM
- IC50 [40]: 2.22 µM
- IC50 [41]: > 20 µM
- IC50 [42]: > 20 µM
- IC50 [43]: > 20 µM
- IC50 [44]: > 20 µM
- IC50 [45]: > 20 µM
- IC50 [46]: > 20 µM
- IC50 [47]: > 20 µM
- IC50 [48]: > 20 µM
- IC50 [49]: > 20 µM
- IC50 [50]: > 20 µM
- IC50 [51]: > 20 µM
